Data: the supplement of paper PMC10307832

Columns and labels:
Assay in all cases: relative viability (nuclei count vs DMSO), 5 days (fraction); higher = more cells survive
[1] = compound: COC1=CC(c2cc3ccccc3[nH]2)=N/C1=C\c1[nH]c(C)cc1C [Obatoclax] + CC(C)C[C@H](NC(=O)[C@H](Cc1ccccc1)NC(=O)c1cnccn1)B(O)O [Bortezomib] (partner 0.002 µM)
How it was run: (§1)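 After 5 days of treatment, lung cancer cells in 1536-well plates were fixed and stained in a single step (final 0.05% Triton X-100, 1% formaldehyde, 1 ug/ml Hoechst) and their nuclei counted on 4× images. Treatment had been applied by pin tool the day after seeding as one drug alone or as a fixed anchor-drug dose with five library-drug doses (not always all listed) in √10 steps. Relative viability is the nuclei count of treated wells divided by that of vehicle wells, and values are medians of duplicate plates.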

[2] = compound: CC(C)C[C@H](NC(=O)[C@H](Cc1ccccc1)NC(=O)c1cnccn1)B(O)O [Bortezomib] + C[C@@H](Oc1cc(-c2cnn(C3CCNCC3)c2)cnc1N)c1c(Cl)ccc(F)c1Cl [Crizotinib] (partner 1 µM)
How it was run: as §1

[3] = compound: CC(C)C[C@H](NC(=O)[C@H](Cc1ccccc1)NC(=O)c1cnccn1)B(O)O [Bortezomib] + CC1(C)CCC(c2ccc(Cl)cc2)=C(CN2CCN(c3ccc(C(=O)NS(=O)(=O)c4ccc(N[C@H](CCN5CCOCC5)CSc5ccccc5)c(S(=O)(=O)C(F)(F)F)c4)cc3)CC2)C1 [Navitoclax] (partner 0.5 µM)
How it was run: as §1

[4] = compound: CC(C)C[C@H](NC(=O)[C@H](Cc1ccccc1)NC(=O)c1cnccn1)B(O)O [Bortezomib] + Nc1ncn([C@H]2C[C@H](O)[C@@H](CO)O2)c(=O)n1 [Decitabine] (partner 2 µM)
How it was run: as §1

Cell Line	relative viability ([1]; first compound 0.01 µM)	relative viability ([1]; first compound 0.03162 µM)	relative viability ([1]; first compound 0.1 µM)	relative viability ([1]; first compound 0.3162 µM)	relative viability ([1]; first compound 1 µM)	relative viability ([2]; first compound 0.0002 µM)	relative viability ([2]; first compound 0.000632 µM)	relative viability ([2]; first compound 0.002 µM)	relative viability ([2]; first compound 0.006325 µM)	relative viability ([2]; first compound 0.02 µM)	relative viability ([3]; first compound 0.0002 µM)	relative viability ([3]; first compound 0.000632 µM)	relative viability ([3]; first compound 0.002 µM)	relative viability ([3]; first compound 0.006325 µM)	relative viability ([3]; first compound 0.02 µM)	relative viability ([4]; first compound 0.0002 µM)	relative viability ([4]; first compound 0.000632 µM)	relative viability ([4]; first compound 0.002 µM)	relative viability ([4]; first compound 0.006325 µM)	relative viability ([4]; first compound 0.02 µM)
HCC-44	0.861	0.836	0.822	0.769	0.386	0.816	0.842	0.839	0.116	0.153	0.96	0.932	0.94	0.225	0.192	0.965	0.965	0.961	0.953	0.258
HCC-78	0.539	0.402	0.718	0.456	0.743	0.365	0.328	0.299	0.148	0.174	0.766	0.794	0.467	0.16	0.178	0.703	0.744	0.644	0.615	0.291
HCC-366	1.06	1	1.08	0.88	1.04	0.522	0.682	0.598	0.275	0.0107	0.945	1.03	1.04	0.949	0.0281	0.305	0.327	0.39	0.201	0.0383
HCC-827	0.928	0.861	0.821	0.855	1.04	0.915	0.837	0.783	0.251	0.116	1.05	1.03	0.768	0.979	0.0957	0.35	0.376	0.346	0.327	0.296
HOP-62	0.909	0.787	0.639	0.739	0.719		1.01	0.35	0.235	0.048	1.17	1.05	0.747	0.243	0.074	0.232	0.204	0.223	0.106	0.0681
LC-2-ad	0.979	0.98	0.98	0.785	0.339		0.476	0.403	0.291	0.19	0.422		0.543	0.0995	0.0978	0.73	0.81	0.931	0.516	0.225
LCLC-97TM1	0.735	0.449	0.439	0.619	0.213	0.4	0.329	0.111	0.114	0.118	0.586	0.451	0.186	0.222	0.0968	0.245	0.238	0.21	0.0935	0.0627
LOU-NH91	0.531	0.435		0.367	0.441	0.749	0.708	0.342	0.314	0.319	0.697	0.543	0.254	0.187	0.201	0.805	0.82	0.41	0.373	0.322
LU99A	1.12	1.13	1.03	0.357	0.224	0.592		0.561	0.274	0.153	0.824		0.945	0.384	0.132	0.841	0.88	0.885	0.825	0.202
LXF-289	1.01	1.01	0.999	0.958	0.847	0.809	0.795	0.896	0.0729	0.0698	0.936	0.942	0.955	0.0537	0.0449	0.364	0.384	0.394	0.196	0.112
NCI-H23	1.03	0.873	1.13	0.804	0.762		0.491	0.417	0.128	0.0919		0.495	0.834	0.212	0.126	0.288		0.312	0.162	0.163
NCI-H322M	1.13	1.21	1.41	1.16	1.34	0.977		0.99	0.985	0.36	1.34		1.18	1.24	1.09	0.783	0.671	0.705	0.6	0.45
NCI-H441	0.378	0.498	0.413	0.291	0.22	0.584	0.716	0.29	0.135	0.129	0.4	0.612	0.31	0.17	0.143	0.235	0.274	0.207	0.119	0.109
NCI-H460	1.01	1.19	0.945	0.0492	0.0392	0.979	0.832	0.927	0.0481	0.0102	1.08	1.15	1.34	0.0699	0.0164	0.479	0.471	0.56	0.296	0.0215
NCI-H520	0.664	0.525	0.562	0.299	0.264	0.913	0.759	0.894	0.102	0.102	1	0.959	0.347	0.145	0.157	0.43	0.549	0.424	0.174	0.155
